According to patent publication US20070167488A1, “Novel therapeutic use” (Leo Pharma A/S, priority 2003, published 2007):

Tests used:
IL-6 = IL-6 production by spleen cells of immunized, dosed mice after in vitro restimulation with PLP139-153; format: cell-based, mouse; details: example 6, 50 mg/kg i.p. daily for 10 days, vs vehicle treated group
IFN-γ = IFN-γ production by spleen cells of immunized, dosed mice after in vitro restimulation with PLP139-153; format: cell-based, mouse; details: example 6, 50 mg/kg i.p. daily for 10 days, vs vehicle treated group
[1] = system: EAE in C57BL/6 mice immunized with a peptide from myelin oligodendrocyte glycoprotein (MOG35-55); assay: Second EAE model: C57BL/6JBom mice immunized with MOG35-55 peptide; format: in vivo, mouse
IL-17 = IL-17 production by spleen cells of immunized, dosed mice after in vitro restimulation with PLP139-153; format: cell-based, mouse; details: example 6, 50 mg/kg i.p. daily for 10 days, vs vehicle treated group
[2] = system: EAE induced in SJL/J mice with a peptide from myelin proteolipid protein (PLP139-153); assay: EAE model in SJL/J mice immunized with PLP139-153 peptide; format: in vivo, mouse; details: for Inhibition of EAE compared with the suspension vehicle group (in words): SJL/J mice, PLP139-153, doses as in tables 1 and 3
IL-2 = IL-2 production by spleen cells of immunized, dosed mice after in vitro restimulation with PLP139-153; format: cell-based, mouse; details: for Level of antigen-specific IL-2 production of spleen cells: example 6, vs vehicle treated group
[3] = system: gene expression in inflammatory cells in the spleen; assay: Oligonucleotide array of spleen cDNA from treated and control EAE mice; format: in vivo, mouse
Method: Control mice were given suspension vehicle as described in example 1. On day 7 after treatment, the mice (both treated and control) were sacrificed and their spleens were excised, submerged into the RNA storage solution RNA-later (Sigma-Aldrich, St. Louis, USA) and stored at −80° C. Total RNA was extracted from the mouse spleens using the TRIZOL extraction procedure according to the manufacturer's protocol followed by DNAse treatment (Invitrogen, Carlsbad, Calif., USA). The RNA quality was visualized by agarose gel electrophoresis. Ten μg total RNA was converted into purified ^33P-labelled cDNA probe according to the Atlas Pure Total RNA labelling protocol (BD Biosciences, Palo Alto, Calif., USA).
Labelled probes (10×10^6 CPM) were denatured at 95° C. for 2 minutes and cooled at 4° C. for 2 minutes prior to hybridization to oligonucleotide arrays comprising about 5.000 mouse genes in duplicate dots (Atlas Plastic Mouse 5K MicroArray, BD Biosciences, Palo Alto, Calif., USA). Arrays were hybridized for 16 h at 60° C. with rotation according to the manufacturer's protocol. After hybridization and appropriate washing steps, the arrays were imaged using phospho imager technology together with a STORM 860 scanner (Molecular Dynamics, Sunnyvale, Calif., USA). Subsequently, the images were analysed using the Atlas Image 2.7 software (BD Biosciences, Palo Alto, Calif., USA).

JAK-2 kinase = JAK-2 kinase (Mus musculus, UniProt Q62120); details: J. J. Bright et al., J. Immunol. 162, 1999; cited from earlier work
Sequence of JAK-2 kinase (Q62120 whole entry): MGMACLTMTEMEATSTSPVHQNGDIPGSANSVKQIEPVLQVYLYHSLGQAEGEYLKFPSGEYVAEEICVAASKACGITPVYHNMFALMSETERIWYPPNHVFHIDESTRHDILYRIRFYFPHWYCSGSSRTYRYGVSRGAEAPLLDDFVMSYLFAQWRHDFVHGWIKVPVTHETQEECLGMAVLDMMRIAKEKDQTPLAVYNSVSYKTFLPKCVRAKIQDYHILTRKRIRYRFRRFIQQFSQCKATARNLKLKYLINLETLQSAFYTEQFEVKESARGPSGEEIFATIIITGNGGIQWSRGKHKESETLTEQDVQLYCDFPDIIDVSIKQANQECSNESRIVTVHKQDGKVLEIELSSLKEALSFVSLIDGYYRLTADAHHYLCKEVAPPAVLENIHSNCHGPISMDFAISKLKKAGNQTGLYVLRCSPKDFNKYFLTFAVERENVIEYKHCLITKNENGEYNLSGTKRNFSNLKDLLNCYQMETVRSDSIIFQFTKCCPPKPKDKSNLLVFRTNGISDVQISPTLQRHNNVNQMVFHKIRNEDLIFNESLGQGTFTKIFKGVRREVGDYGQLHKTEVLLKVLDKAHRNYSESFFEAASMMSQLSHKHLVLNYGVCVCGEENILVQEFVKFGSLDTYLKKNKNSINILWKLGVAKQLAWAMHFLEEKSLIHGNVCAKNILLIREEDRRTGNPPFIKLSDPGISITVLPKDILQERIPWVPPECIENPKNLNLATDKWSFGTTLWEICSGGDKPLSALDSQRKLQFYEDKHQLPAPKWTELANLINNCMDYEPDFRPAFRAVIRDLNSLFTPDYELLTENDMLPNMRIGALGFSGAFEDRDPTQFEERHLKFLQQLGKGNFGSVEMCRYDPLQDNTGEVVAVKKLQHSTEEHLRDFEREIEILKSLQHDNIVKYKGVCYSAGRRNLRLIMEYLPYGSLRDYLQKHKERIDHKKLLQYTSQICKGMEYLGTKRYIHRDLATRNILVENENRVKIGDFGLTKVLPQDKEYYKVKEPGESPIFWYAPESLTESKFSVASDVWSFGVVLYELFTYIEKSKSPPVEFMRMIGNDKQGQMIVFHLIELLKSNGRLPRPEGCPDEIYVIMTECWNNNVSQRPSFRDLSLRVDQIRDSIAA

[4] = system: lymphocyte adhesion to inflamed vessels; details: G. Constantin et al., J. Immunol. 162, 1999; cited from earlier work
[5] = MOG35-55, day 0-21, 50 mg/kg i.p. daily
[6] = Exp. 1, terminated day 21, 50 mg/kg i.p. daily
[7] = Exp. 2, terminated day 21, 4 mg/kg i.p. daily
[8] = Exp. 2, terminated day 21, 10 mg/kg i.p. daily
[9] = Exp. 2, terminated day 21, 25 mg/kg i.p. daily
[10] = Exp. 2, terminated day 21, 50 mg/kg i.p. daily
[11] = Exp. 3, terminated day 28, 25 mg/kg i.p. daily
[12] = Exp. 3, terminated day 28, 50 mg/kg i.p. daily
[13] = Exp. 4, terminated day 35, 50 mg/kg i.p. daily
[14] = MOG35-55, day 0-21, dexamethasone 1 mg/kg p.o.
[15] = Exp. 1, terminated day 21, dexamethasone 0.5 mg/kg from day 0
[16] = Exp. 2, terminated day 21, dexamethasone 1 mg/kg from day 1
[17] = Exp. 3, terminated day 28, dexamethasone 1 mg/kg from day 1
[18] = Table 3, experiment with compound 57 (vehicle AUC 28.6), day 0-21, dexamethasone 1 mg/kg p.o.
[19] = Table 3, experiment with compound 110 (vehicle AUC 42.75), day 0-21, dexamethasone 1 mg/kg p.o.
[20] = Table 4, 50 mg/kg daily, treatment as in example 4
[21] = listed as 3-(1H-indol-3-ylmethylene)-1,3-dihydro-indol-2-one
[22] = Table 3, experiment with vehicle AUC 28.6, day 0-21, 50 mg/kg i.p. daily

## Cc1cc(C)c(C=C2C(=O)Nc3ccccc32)[nH]1 [Compound 226, 3-(3,5-dimethyl-1H-pyrrol-2-ylmethylene)-1,3-dihydro-indol-2-one]
IL-6; listed as compound 226
  Level of antigen-specific IL-6 production of spleen cells: clearly reduced
IFN-γ; listed as compound 226
  Level of antigen-specific IFN-γ production of spleen cells: clearly reduced
[1]; MOG35-55, 50 mg/kg i.p.
  Effect on disease development (in words): significant effect on disease development
[1]; [5]
  AUC (mean) of the disease score: 2.65
  inhibition (%): 83%
IL-17; listed as compound 226
  Level of antigen-specific IL-17 production of spleen cells: clearly reduced
[2]; [6]
  AUC (mean) of the disease score: 1.8
  inhibition (%): 90%
[2]; [7]
  AUC (mean) of the disease score: 21.2
  inhibition (%): 17%
[2]; [8]
  AUC (mean) of the disease score: 19.6
  inhibition (%): 23%
[2]; [9]
  AUC (mean) of the disease score: 4.6
  inhibition (%): 82%
[2]; [10]
  AUC (mean) of the disease score: 0.6
  inhibition (%): 98%
[2]; [11]
  AUC (mean) of the disease score: 11.9
  inhibition (%): 70%
[2]; [12]
  AUC (mean) of the disease score: 6.6
  inhibition (%): 83%
[2]; [13]
  AUC (mean) of the disease score: 21.9
  inhibition (%): 65%
[2]
  Inhibition of EAE compared with the suspension vehicle group (in words): significantly inhibit
[2]; experiments 3 and 4, prolonged with one and two weeks
  Effect on development of EAE in prolonged experiments (in words): delays development of EAE rather than prevents the disease
IL-2; 50 mg/kg i.p. daily for 10 days, spleen cells day 10, PLP139-153, 3 days culture
  IL-2 production of restimulated spleen cells after in vivo dosing: markedly inhibited
IL-2; 10^−7 M in vitro for 3 days
  IL-2 production of cells from suspension vehicle treated mice on in vitro incubation with compound: did not inhibit
IL-2; 50 mg/kg i.p. daily for 10 days, listed as compound 226
  Level of antigen-specific IL-2 production of spleen cells: clearly reduced
[3]; day 7, daily dosing from day 0
  Genes on the Atlas MicroArray differentially expressed, treated vs control mice: Approximately 1.5%
[3]; day 7, treated vs control mice
  Expression of genes encoding adhesion molecules (lymphocyte antigens 6 locus D, 6 locus E, 84): upregulated
  Expression of genes encoding interleukin 1 receptor, interleukin 10 receptor alpha, TNF receptor and TNF receptor-associated factor 1: downregulated

## N#C/C(=C\c1ccc(O)c(O)c1)C(=O)NCc1ccccc1 [tyrphostin B42]
JAK-2 kinase
  Inhibition of IL-12 induced tyrosine phosphorylation and activation of JAK-2 kinase: inhibit
[4]
  Inhibition of lymphocyte adhesion to inflamed vessels: effective inhibitor

## Cc1cc(C)c(C=C2C(=O)Nc3ccccc32)[nH]1 [3-(3,5-dimethyl-1H-pyrrol-2-ylmethylene)-1,3-dihydro-indol-2-one]
IL-6
  Level of antigen-specific IL-6 production of spleen cells: inhibit expression
IFN-γ
  Level of antigen-specific IFN-γ production of spleen cells: inhibit expression
IL-17
  Level of antigen-specific IL-17 production of spleen cells: inhibit expression
IL-2; 50 mg/kg i.p. daily for 10 days
  Level of antigen-specific IL-2 production of spleen cells: inhibit expression

## C[C@@H]1C[C@H]2[C@@H]3CCC4=CC(=O)C=C[C@]4(C)[C@@]3(F)[C@@H](O)C[C@]2(C)[C@@]1(O)C(=O)CO [Dexamethasone, dexamethasone, reference compound]
[1]; [14]
  AUC (mean) of the disease score: 0.00
  inhibition (%): 100%
[2]; [15]
  AUC (mean) of the disease score: 4.3
  inhibition (%): 75%
[2]; [16]
  AUC (mean) of the disease score: 11.8
  inhibition (%): 54%
[2]; [17]
  AUC (mean) of the disease score: 0.8
  inhibition (%): 98%
[2]; [18]
  AUC (mean) of the disease score: 13.15
  inhibition (%): 54%
[2]; [19]
  AUC (mean) of the disease score: 8.85
  inhibition (%): 79%

## CCN(CC)CCNC(=O)c1c(C)[nH]c(/C=C2\C(=O)Nc3ccccc32)c1C [Compound 227, 2,4-dimethyl-5-(2-oxo-1,2-dihydro-indol-3-ylidenemethyl)-1H-pyrrole-3-carboxylic acid (2-diethylamino-ethyl)-amide]
[2]; [20]
  Inhibition (%) of EAE (area-under-curve of the disease score): 49%

## CCN(CC)CCNC(=O)c1c(C)[nH]c(/C=C2\C(=O)Nc3ccc(F)cc32)c1C [Compound 228, 5-(5-fluoro-2-oxo-1,2-dihydro-indol-3-ylidenemethyl)-2,4-dimethyl-1H-pyrrole-3-carboxylic acid (2-diethylamino-ethyl)-amide]
[2]; [20]
  Inhibition (%) of EAE (area-under-curve of the disease score): 43%

## O=C1Nc2ccccc2C1=Cc1c[nH]c2ccccc12 (racemic) [Compound 57, 3-(1H-indol-3-ylmethylene)-1,3-dihydro-indol-2-one]
IL-6; [21]
  Level of antigen-specific IL-6 production of spleen cells: inhibit expression
IL-6; listed as compound 57
  Level of antigen-specific IL-6 production of spleen cells: clearly reduced
IFN-γ; [21]
  Level of antigen-specific IFN-γ production of spleen cells: inhibit expression
IFN-γ; listed as compound 57
  Level of antigen-specific IFN-γ production of spleen cells: clearly reduced
IL-17; [21]
  Level of antigen-specific IL-17 production of spleen cells: inhibit expression
IL-17; listed as compound 57
  Level of antigen-specific IL-17 production of spleen cells: clearly reduced
[2]
  Inhibition of EAE compared with the suspension vehicle group (in words): clear and significant inhibition
[2]; [22]
  AUC (mean) of the disease score: 4.70
  inhibition (%): 84%
[2]; Table 7, 50 mg/kg p.o., suspension vehicle
  Inhibition (%) of EAE (area-under-curve of the disease score): 32%
IL-2; 50 mg/kg i.p. daily for 10 days, listed as 3-(1H-indol-3-ylmethylene)-1,3-dihydro-indol-2-one
  Level of antigen-specific IL-2 production of spleen cells: inhibit expression
IL-2; 50 mg/kg i.p. daily for 10 days, listed as compound 57
  Level of antigen-specific IL-2 production of spleen cells: clearly reduced

## CC(=O)ON1C(=O)/C(=C\c2[nH]c(C)cc2C)c2ccccc21 [Compound 51, acetic acid 3-(3,5-dimethyl-1H-pyrrol-2-ylmethylene)-2-oxo-2,3-dihydro-indol-1-yl ester]
[2]; [20]
  Inhibition (%) of EAE (area-under-curve of the disease score): 48%

## CCOC(=O)c1cc(C)c(/C=C2\C(=O)Nc3ccccc32)[nH]1 [Compound 01, 4-methyl-5-(2-oxo-1,2-dihydro-indol-3-ylidenemethyl)-1H-pyrrole-2-carboxylic acid ethyl ester]
[2]; [20]
  Inhibition (%) of EAE (area-under-curve of the disease score): 44%

## COc1cccc(C=C2C(=O)Nc3ccccc32)c1 (racemic) [Compound 153, 3-(3-methoxy-benzylidene)-1,3-dihydro-indol-2-one]
[2]; [20]
  Inhibition (%) of EAE (area-under-curve of the disease score): 38%
